Data taken from US7138361B2, “Herbicidal heterocycles” (E. I. du Pont de Nemours and Company, priority 2000, dated 2006).

Assays:
Format in all cases: in vivo
[1] = tested on: duck salad (Heteranthera limosa); experiment: Test C flooded paddy test; conditions: for Ducksalad plant response rating: Flooded Paddy, scale 0 to 100, 0 no effect, 100 complete control; for Plant response rating, Ducksalad: flooded paddy test, scale 0 to 100 (0 no effect, 100 complete control)
Method: (§1) At the same time, plants selected from these crop and weed species and also winter barley (Hordeum vulgare), blackgrass (Alopecurus myosuroides), canary grass (Phalaris minor), chickweed (Stellaria media), downy brome (Bromus tectorum), green foxtail (Setaria viridis), Italian ryegrass (Lolium multiflorum), wheat (Triticum aestivum), wild oat (Avena fatua) and windgrass (Apera spica-venti) were treated with postemergence applications of some of the test chemicals formulated in the same manner. Plants ranged in height from 2 to 18 cm (1- to 4-leaf stage) for postemergence treatments. Plant species in the flooded paddy test consisted of rice (Oryza saliva), smallflower flatsedge (Cyperus difformis), duck salad (Heteranthera limosa) and barnyardgrass (Echinochloa crus-galli) grown to the 2-leaf stage for testing. Treated plants and controls were maintained in a greenhouse for 12 to 14 days, after which time all species were compared to controls and visually evaluated. Plant response ratings, summarized in Table C, are based on a scale of 0 to 100 where 0 is no effect and 100 is complete control. A dash (-) response means no test result.

rice (Oryza saliva) [2] = experiment: Test C flooded paddy test; conditions: for Rice plant response rating: Flooded Paddy, scale 0 to 100, 0 no effect, 100 complete control; for Plant response rating, Rice: flooded paddy test, scale 0 to 100 (0 no effect, 100 complete control)
Method: as §1

[3] = tested on: barnyardgrass (Echinochloa crus-galli); experiment: Test C flooded paddy test; conditions: for Barnyardgrass plant response rating: Flooded Paddy, scale 0 to 100, 0 no effect, 100 complete control; for Plant response rating, Barnyardgrass: flooded paddy test, scale 0 to 100 (0 no effect, 100 complete control)
Method: as §1

[4] = tested on: smallflower flatsedge (Cyperus difformis); experiment: Test C flooded paddy test; conditions: for Flatsedge plant response rating: Flooded Paddy, scale 0 to 100, 0 no effect, 100 complete control; for Plant response rating, Flatsedge: flooded paddy test, scale 0 to 100 (0 no effect, 100 complete control)
Method: as §1

[5] = tested on: blackgrass (Alopecurus myosuroides); experiment: Test B postemergence; conditions: 13 to 15 days
From the text: (§2) Seeds selected from barnyardgrass (Echinochloa crus-galli), Surinam grass (Brachiaria decumbens), cocklebur (Xanthium strumarium), corn (Zea mays), crabgrass (Digitaria sanguinalis), giant foxtail (Setaria faberii), lambsquarters (Chenopodium album), morning glory (Ipomoea hederacea), pigweed (Amaranthus retroflexus), rice (Oryza saliva) and velvetleaf (Abutilon theophrasti) were planted and treated preemergence with test chemicals formulated in a non-phytotoxic solvent mixture which included a surfactant.
(§3) At the same time, plants selected from these crop and weed species and also blackgrass (Alopecurus myosuroides), wheat (Triticum aestivum) and wild oat (Avena fatua) were treated with postemergence applications of test chemicals formulated in the same manner. Plants ranged in height from 2 to 18 cm (1- to 4-leaf stage) for postemergence treatments. Plant species in the flooded paddy test consisted of rice (Oryza saliva), smallflower flatsedge (Cyperus difformis), duck salad (Heteranthera limosa) and barnyardgrass (Echinochloa crus-galli) grown to the 2-leaf stage for testing. Treated plants and controls were maintained in a greenhouse for 13 to 15 days, after which time all species were compared to controls and visually evaluated. Plant response ratings, summarized in Table B, are based on a scale of 0 to 100 where 0 is no effect and 100 is complete control. A dash (-) response means no test result.

[6] = tested on: wheat (Triticum aestivum); experiment: Test B postemergence; conditions: Rate 500 g/ha, scale 0 to 100, 0 is no effect, 100 is complete control, 13 to 15 days
From the text: as §2, §3

[7] = tested on: giant foxtail (Setaria faberii); experiment: Test B postemergence; conditions: 13 to 15 days
From the text: as §2, §3

wild oat (Avena fatua) = experiment: Test B postemergence; conditions: Rate 500 g/ha, scale 0 to 100, 0 is no effect, 100 is complete control, 13 to 15 days
From the text: as §2, §3

corn (Zea mays) [8] = experiment: Test B postemergence; conditions: 13 to 15 days
From the text: as §2, §3

[9] = tested on: morning glory (Ipomoea hederacea); experiment: Test B postemergence; conditions: Rate 500 g/ha, scale 0 to 100, 0 is no effect, 100 is complete control, 13 to 15 days
From the text: as §2, §3

[10] = tested on: pigweed (Amaranthus retroflexus); experiment: Test B postemergence; conditions: Rate 500 g/ha, scale 0 to 100, 0 is no effect, 100 is complete control, 13 to 15 days
From the text: as §2, §3

[11] = tested on: velvetleaf (Abutilon theophrasti); experiment: Test B postemergence; conditions: Rate 500 g/ha, scale 0 to 100, 0 is no effect, 100 is complete control, 13 to 15 days
From the text: as §2, §3

[12] = tested on: lambsquarters (Chenopodium album); experiment: Test B postemergence; conditions: Rate 500 g/ha, scale 0 to 100, 0 is no effect, 100 is complete control, 13 to 15 days
From the text: as §2, §3

[13] = tested on: Surinam grass (Brachiaria decumbens); experiment: Test B postemergence; conditions: 13 to 15 days
From the text: as §2, §3

[14] = tested on: crabgrass (Digitaria sanguinalis); experiment: Test B postemergence; conditions: 13 to 15 days
From the text: as §2, §3

[15] = tested on: barnyardgrass (Echinochloa crus-galli); experiment: Test B postemergence; conditions: 13 to 15 days
From the text: as §2, §3

[16] = tested on: giant foxtail (Setaria faberii); experiment: Test B preemergence
From the text: as §2, §3

rice (Oryza saliva) [17] = experiment: Test B preemergence
From the text: as §2, §3

corn (Zea mays) [18] = experiment: Test B preemergence
From the text: as §2, §3

[19] = tested on: morning glory (Ipomoea hederacea); experiment: Test B preemergence
From the text: as §2, §3

[20] = tested on: cocklebur (Xanthium strumarium); experiment: Test B preemergence
From the text: as §2, §3

[21] = tested on: pigweed (Amaranthus retroflexus); experiment: Test B preemergence
From the text: as §2, §3

[22] = tested on: velvetleaf (Abutilon theophrasti); experiment: Test B preemergence
From the text: as §2, §3

[23] = tested on: lambsquarters (Chenopodium album); experiment: Test B preemergence
From the text: as §2, §3

[24] = tested on: Surinam grass (Brachiaria decumbens); experiment: Test B preemergence
From the text: as §2, §3

[25] = tested on: crabgrass (Digitaria sanguinalis); experiment: Test B preemergence
From the text: as §2, §3

[26] = tested on: barnyardgrass (Echinochloa crus-galli); experiment: Test B preemergence
From the text: as §2, §3

[27] = Rate 125 g/ha, scale 0 (no effect) to 100 (complete control)
[28] = Rate 500 g/ha, scale 0 to 100, 0 is no effect, 100 is complete control
[29] = Preemergence, Rate 500 g/ha, scale 0 to 100, 0 no effect, 100 complete control
[30] = preemergence, Rate 125 g/ha, scale of 0 to 100 where 0 is no effect and 100 is complete control, 13 to 15 days

With `CC(C)(C)c1ccn(C2CCN(c3cccc(S(C)(=O)=O)c3)C2=O)n1` (centres unmarked) [Compound 102] the “Ducksalad plant response rating” value ([1]; Rate 250 g/ha) was 0, the “Ducksalad plant response rating” value ([1]; Rate 500 g/ha) was 0 and the “Plant response rating, Ducksalad” value ([1]; Rate 62 g/ha) was 0. The “Plant response rating, Ducksalad” value ([1]; Rate 125 g/ha) was 0, the “Rice plant response rating” value (rice (Oryza saliva) [2]; Rate 250 g/ha) was 0 and the “Rice plant response rating” value (rice (Oryza saliva) [2]; Rate 500 g/ha) was 0. The “Plant response rating, Rice” value (rice (Oryza saliva) [2]; Rate 62 g/ha) was 0, the “Plant response rating, Rice” value (rice (Oryza saliva) [2]; Rate 125 g/ha) was 0 and the “Barnyardgrass plant response rating” value ([3]; Rate 250 g/ha) was 0. The “Barnyardgrass plant response rating” value ([3]; Rate 500 g/ha) was 0, the “Plant response rating, Barnyardgrass” value ([3]; Rate 62 g/ha) was 0 and the “Plant response rating, Barnyardgrass” value ([3]; Rate 125 g/ha) was 0. For the same compound, the “Flatsedge plant response rating” value ([4]; Rate 250 g/ha) was 30, the “Flatsedge plant response rating” value ([4]; Rate 500 g/ha) was 60 and the “Plant response rating, Flatsedge” value ([4]; Rate 62 g/ha) was 0. The “Plant response rating, Flatsedge” value ([4]; Rate 125 g/ha) was 30, the “Plant response rating, Blackgrass” value [5, 27] was 0 and the “Plant response rating, Blackgrass” value [5, 28] was 0. The “Plant response rating, Wheat” value [6] was 0, the “Plant response rating, Foxtail, Giant” value [7, 27] was 0 and the “Plant response rating, Foxtail, Giant” value [7, 28] was 0. The “Plant response rating, Wild Oat” value (wild oat (Avena fatua)) was 0, the “Plant response rating, Corn” value (corn (Zea mays) [8]; [27]) was 0 and the “Plant response rating, Corn” value (corn (Zea mays) [8]; [28]) was 0. The “Plant response rating, Morningglory” value [9] was 0, the “Plant response rating, Pigweed” value [10] was 0 and the “Plant response rating, Velvetleaf” value [11] was 0. The “Plant response rating, Lambsquarters” value [12] was 0, the “Plant response rating, Surinam grass” value [13, 27] was 0 and the “Plant response rating, Surinam grass” value [13, 28] was 0. The “Plant response rating, Crabgrass” value [14, 27] was 0, the “Plant response rating, Crabgrass” value [14, 28] was 0 and the “Plant response rating, Barnyardgrass” value [15, 27] was 0. The “Plant response rating, Barnyardgrass” value [15, 28] was 0, the “Plant response rating, Foxtail, Giant” value [16, 29] was 0 and the “Plant response rating, Foxtail, Giant” value [16, 30] was 0. For the same compound, the “Plant response rating, Rice” value (rice (Oryza saliva) [17]; [29]) was 0, the “Plant response rating, Rice” value (rice (Oryza saliva) [17]; [30]) was 0 and the “Plant response rating, Corn” value (corn (Zea mays) [18]; [29]) was 0. The “Plant response rating, Corn” value (corn (Zea mays) [18]; [30]) was 0, the “Plant response rating, Morningglory” value [19, 29] was 0 and the “Plant response rating, Morningglory” value [19, 30] was 0. The “Plant response rating, Cocklebur” value [20, 29] was 0, the “Plant response rating, Cocklebur” value [20, 30] was 0 and the “Plant response rating, Pigweed” value [21, 29] was 0. The “Plant response rating, Pigweed” value [21, 30] was 0, the “Plant response rating, Velvetleaf” value [22, 29] was 0 and the “Plant response rating, Velvetleaf” value [22, 30] was 0. For the same compound, the “Plant response rating, Lambsquarters” value [23, 29] was 0, the “Plant response rating, Lambsquarters” value [23, 30] was 0 and the “Plant response rating, Surinam grass” value [24, 29] was 0. The “Plant response rating, Surinam grass” value [24, 30] was 0, the “Plant response rating, Crabgrass” value [25, 29] was 90 and the “Plant response rating, Crabgrass” value [25, 30] was 0. The “Plant response rating, Barnyardgrass” value [26, 29] was 0 and the “Plant response rating, Barnyardgrass” value [26, 30] was 0.
